{"source": "patent US12258360B2", "about": "“Compositions and methods for treatment of anticancer-drug resistant cancers” (THE GEORGE WASHINGTON UNIVERSITY, priority 2020, dated 2025)", "key": {"[1]": {"tested_on": "recruitment of CtIP to DSB sites in IGROV1 cells", "experiment": "immunofluorescence assay of CtIP co-localization with γH2AX after micro-irradiation", "format": "cell-based, human", "conditions": "1 μM, 30 minutes post irradiation", "description": "H2AX (H2A histone family member X) becomes phosphorylated on serine 139 (wherein the phosphorylated form is then called […]) as a reaction on DNA double-strand breaks (DSB). And-1 regulates DSB end resection by establishing a condition or acting as a platform for recruitment of the tumor suppressor protein CtIP—a CtBP (carboxy-terminal binding protein)-interacting protein, to the DSB sites. […] In brief, IGROV1 cells were cultured on coverslips coated with 0.01% of poly-L-lysine. After treatment, the cells were then washed once with PBS, then pre-extracted with 0.5% Triton X-100 extraction buffer (10 mM PIPES pH 7.0, 100 mM NaCl, 3 mM MgCl2 and 300 mM sucrose) on ice for 5 minutes. After washing with PBS, cells were fixed with 4% paraformaldehyde in PBS for 15 minutes. Cells were then washed and incubated for 10 minutes in blocking buffer (PBS containing 3% BSA and 0.02% Tween-20) and subsequently incubated for 1 hour with a primary antibody at room temperature. Cells were washed three times with PBS-T (PBS containing 0.02% Tween-20) and then incubated with a secondary antibody (e.g., rabbit Alexa Fluor-594 and mouse Alexa Fluor-488). After washing with PBS-T, cells were mounted with Fluoromount G containing DAPI (4′,6-diamidino-2-phenylindole—a fluorescent stain that binds strongly to adenine-thymine-rich regions in DNA). Slides were then imaged using a Nikon Eclipse 80i microscope. […]"}, "[2]": {"tested_on": "IGROV1 cells", "experiment": "flow cytometry (FACS) of propidium-iodide stained IGROV1 cells", "format": "cell-based, human", "conditions": "1 μM"}}}
{"smiles": "OB1OCc2cc(/C=C/c3ccc(Cl)c(Cl)c3)ccc21", "note": "[CH3]", "values": [{"measurement": "recruitment of CtIP to DSB sites induced by micro-irradiation", "setting": "[1]", "value": "significantly decreased"}, {"measurement": "percentage of cells in the S-phase", "setting": "[2]", "value": "reduced the percentage of cells in the S-phase"}]}
